# Test results as given in patent US8030498B2, “Benzoylpyrazole compounds and herbicides containing them” (Ishihara Sangyo Kaisha, Ltd., priority 2005, dated 2011).
# Experiments:
# [1] = tested on: greenfoxtail (Setaria viridis L.); assay: Test Example 1: foliar treatment, growth inhibition rate, greenfoxtail; assay type: in vivo; details: 31 g/ha active ingredient, visually observed 17th to 23rd day after application
# Text: (§1) Upland field soil was put into a 1/170,000 hectare pot, and seeds of various plants were sown. When the respective plants reached predetermined leaf stage ((1) barnyardgrass (Echinochloa crus-galli L.); 0.8 to 2.5 leaf stage, (2) crabgrass (Digitaria sanguinalis L.): 0.5 to 3.0 leaf stage, (3) greenfoxtail (Setaria viridis L.): 1.0 to 3.0 leaf stage, (4) redroot pigweed (Amaranthus retroflexus L.): cotyledon stage to 2.0 leaf stage, (5) prickly sida (Sida spinosa L.): cotyledon stage to 1.1 leaf stage, (6) velvetleaf (Abutilon theophrasti MEDIC.): cotyledon stage to 1.5 leaf stage, (7) rice (Oryza sativa L.): 1.0 to 2.5 leaf stage, (8) wheat (Triticum spp.): 1.7 to 3.4 leaf stage, (9) corn (Zea mays L.): 2.0 to 3.5 leaf stage, and (10) soybean (Glycine max Merr.): primary leaf stage to 0.3 leaf stage), wettable powders or emulsifiable concentrates of the compounds of the present invention prepared in accordance with a conventional preparation method, were weighed so that the active ingredients became the prescribed amounts, and diluted with water in an amount corresponding to 500 liter per 1 hectare. 0.1 vol % of an agricultural spreader was further added to the respective diluted liquids, followed by foliar treatment with a small sprayer.
# (§2) On the 17th to 23rd day after application, the state of growth of the respective plants was visually observed, and the herbicidal effect was evaluated in accordance with a growth inhibition rate (%) of 0 (equivalent to the non-treated area) to 100% (complete kill).
# [2] = tested on: prickly sida; assay: Test Example 2: soil application on the day after sowing, growth inhibition rate, prickly sida; assay type: in vivo, Sida spinosa L.; details: 250 g/ha active ingredient, observed on 19th to 24th day
# Text: (§3) Upland field soil was put into a 1/170,000 hectare pot, and seeds of various plants (barnyardgrass, crabgrass, greenfoxtail, redroot pigweed, prickly sida, velvetleaf, rice, wheat, corn and soybean) were sown. On the day after sowing, wettable powders or emulsifiable concentrates of the compounds of the present invention prepared in accordance with a conventional preparation method, were weighed so that the active ingredients became the prescribed amounts, and diluted with water in an amount corresponding to 500 liter per 1 hectare, followed by soil application with a small sprayer. On the 19th to 24th day after the application, the state of growth of the respective plants was visually observed, and the herbicidal effect was evaluated in accordance with a growth inhibition rate (%) of from 0 (equivalent to the non-treated area) to 100% (complete kill).
# [3] = tested on: wheat (Triticum spp.); assay: Test Example 1: foliar treatment, growth inhibition rate, wheat; assay type: in vivo; details: 31 g/ha active ingredient, visually observed 17th to 23rd day after application
# Text: as §1, §2
# [4] = tested on: corn (Zea mays L.); assay: Test Example 1: foliar treatment, growth inhibition rate, corn; assay type: in vivo; details: 31 g/ha active ingredient, visually observed 17th to 23rd day after application
# Text: as §1, §2
# [5] = tested on: redroot pigweed; assay: Test Example 2: soil application on the day after sowing, growth inhibition rate, redroot pigweed; assay type: in vivo, Amaranthus retroflexus L.; details: 250 g/ha active ingredient, observed on 19th to 24th day
# Text: as §3
# [6] = tested on: prickly sida (Sida spinosa L.); assay: Test Example 1: foliar treatment, growth inhibition rate, prickly sida; assay type: in vivo; details: 31 g/ha active ingredient, visually observed 17th to 23rd day after application
# Text: as §1, §2
# [7] = tested on: corn; assay: Test Example 2: soil application on the day after sowing, growth inhibition rate, corn; assay type: in vivo, Zea mays L.; details: 250 g/ha active ingredient, observed on 19th to 24th day
# Text: as §3
# [8] = tested on: soybean; assay: Test Example 2: soil application on the day after sowing, growth inhibition rate, soybean; assay type: in vivo, Glycine max Merr.; details: 250 g/ha active ingredient, observed on 19th to 24th day
# Text: as §3
# [9] = tested on: crabgrass; assay: Test Example 2: soil application on the day after sowing, growth inhibition rate, crabgrass; assay type: in vivo, Digitaria sanguinalis L.; details: 250 g/ha active ingredient, observed on 19th to 24th day
# Text: as §3
# [10] = tested on: rice (Oryza sativa L.); assay: Test Example 1: foliar treatment, growth inhibition rate, rice; assay type: in vivo; details: 31 g/ha active ingredient, visually observed 17th to 23rd day after application
# Text: as §1, §2
# [11] = tested on: rice; assay: Test Example 2: soil application on the day after sowing, growth inhibition rate, rice; assay type: in vivo, Oryza sativa L.; details: 250 g/ha active ingredient, observed on 19th to 24th day
# Text: as §3
# [12] = tested on: velvetleaf (Abutilon theophrasti MEDIC.); assay: Test Example 1: foliar treatment, growth inhibition rate, velvetleaf; assay type: in vivo; details: 31 g/ha active ingredient, visually observed 17th to 23rd day after application
# Text: as §1, §2
# [13] = tested on: velvetleaf; assay: Test Example 2: soil application on the day after sowing, growth inhibition rate, velvetleaf; assay type: in vivo, Abutilon theophrasti MEDIC.; details: 250 g/ha active ingredient, observed on 19th to 24th day
# Text: as §3
# [14] = tested on: greenfoxtail; assay: Test Example 2: soil application on the day after sowing, growth inhibition rate, greenfoxtail; assay type: in vivo, Setaria viridis L.; details: 250 g/ha active ingredient, observed on 19th to 24th day
# Text: as §3
# [15] = tested on: barnyardgrass; assay: Test Example 2: soil application on the day after sowing, growth inhibition rate, barnyardgrass; assay type: in vivo, Echinochloa crus-galli L.; details: 250 g/ha active ingredient, observed on 19th to 24th day
# Text: as §3
# [16] = tested on: soybean (Glycine max Merr.); assay: Test Example 1: foliar treatment, growth inhibition rate, soybean; assay type: in vivo; details: 31 g/ha active ingredient, visually observed 17th to 23rd day after application
# Text: as §1, §2
# [17] = tested on: barnyardgrass (Echinochloa crus-galli L.); assay: Test Example 1: foliar treatment, growth inhibition rate, barnyardgrass; assay type: in vivo; details: 31 g/ha active ingredient, visually observed 17th to 23rd day after application
# Text: as §1, §2
# [18] = tested on: crabgrass (Digitaria sanguinalis L.); assay: Test Example 1: foliar treatment, growth inhibition rate, crabgrass; assay type: in vivo; details: 31 g/ha active ingredient, visually observed 17th to 23rd day after application
# Text: as §1, §2
# [19] = tested on: redroot pigweed (Amaranthus retroflexus L.); assay: Test Example 1: foliar treatment, growth inhibition rate, redroot pigweed; assay type: in vivo; details: 31 g/ha active ingredient, visually observed 17th to 23rd day after application
# Text: as §1, §2
Compound,Growth inhibition rate (%) Greenfoxtail [1],Growth inhibition rate (%) Prickly sida [2],Growth inhibition rate (%) Wheat [3],Growth inhibition rate (%) Corn [4],Growth inhibition rate (%) redroot pigweed [5],Growth inhibition rate (%) Prickly sida [6],Growth inhibition rate (%) Corn [7],Growth inhibition rate (%) Soybean [8],Growth inhibition rate (%) Crabgrass [9],Growth inhibition rate (%) Rice [10],Growth inhibition rate (%) Rice [11],Growth inhibition rate (%) Velvetleaf [12],Growth inhibition rate (%) Velvetleaf [13],Growth inhibition rate (%) Greenfoxtail [14],Growth inhibition rate (%) Barnyardgrass [15],Growth inhibition rate (%) Soybean [16],Growth inhibition rate (%) Barnyardgrass [17],Growth inhibition rate (%) Crabgrass [18],Growth inhibition rate (%) redroot pigweed [19]
COCCOc1c(S(C)(=O)=O)ccc(C(=O)c2cnn(C)c2OC(=O)SC)c1C [compound 233],100%,40%,0%,0%,100%,60%,0%,50%,100%,80%,100%,100%,100%,100%,100%,100%,100%,100%,
CCCSC(=O)Oc1c(C(=O)c2ccc(S(C)(=O)=O)c(OCCOC)c2C)cnn1CC [compound 235],100%,98%,40%,30%,100%,50%,0%,0%,100%,90%,100%,100%,20%,100%,100%,100%,100%,100%,100%
CCn1ncc(C(=O)c2ccc(S(C)(=O)=O)c(OCCOC)c2C)c1OC(=O)SC [compound 234],100%,20%,0%,0%,100%,50%,0%,0%,100%,90%,100%,100%,70%,100%,100%,100%,100%,100%,100%
CCSC(=O)Oc1c(C(=O)c2ccc(S(C)(=O)=O)c(COC)c2Cl)cnn1C [compound 42],95%,,0%,0%,100%,90%,0%,,100%,90%,,95%,70%,,,95%,100%,98%,100%
COCc1c(S(C)(=O)=O)ccc(C(=O)c2cnn(C)c2OC(=O)SC)c1Cl [compound 74],80%,,20%,40%,95%,70%,0%,,90%,95%,,100%,70%,,,98%,100%,98%,100%
CCSC(=O)Oc1c(C(=O)c2ccc(S(C)(=O)=O)c(CCOC)c2C)cnn1C [compound 75],100%,,0%,40%,100%,100%,10%,,100%,98%,,100%,80%,,,98%,98%,100%,100%
CCSC(=O)Oc1c(C(=O)c2ccc(S(C)(=O)=O)c(OCC(F)(F)F)c2C)cnn1C [compound 79],98%,,0%,50%,90%,75%,0%,,90%,60%,,98%,50%,,,100%,100%,100%,100%
CCOCc1c(S(C)(=O)=O)ccc(C(=O)c2cnn(C)c2OC(=O)SCC)c1C [compound 73],100%,,0%,30%,100%,70%,0%,,100%,95%,,98%,100%,,,98%,100%,100%,100%
CCSC(=O)Oc1c(C(=O)c2ccc(S(C)(=O)=O)c(COCCOC)c2C)cnn1C [compound 76],80%,,0%,30%,90%,65%,0%,,100%,60%,,75%,30%,,,95%,98%,98%,90%
CCSC(=O)Oc1c(C(=O)c2ccc(S(C)(=O)=O)c(OCC(C)OC)c2C)cnn1C (stereo not shown) [compound 189],98%,100%,,0%,100%,70%,0%,10%,100%,90%,100%,100%,100%,100%,100%,98%,95%,95%,
